According to PubChem BioAssay AID328 (DTP/NCI, 2004):
Where “and” joins values, the source holds several entries; their conditions need not be identical. Equal values may be shown once. Toxic doses and inconclusive results are not listed. How the source made its calls: active means survival T/C of 150% or more; inactive means T/C below 125% in these data.

Tested on: BDF1 mice, P388 leukemia ip, median survival T/C
Assay: NCI In Vivo Anticancer Drug Screen. Data for tumor model P388 Leukemia (intraperitoneal) in B6D2F1 (BDF1) mice
Conditions: endpoint: median survival time, higher = longer survival
Summary of the method: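 Steps: implant the tumour, treat one group with compound and another with vehicle, record survival, then divide treated by control.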

[1] = dose: 6.25 mg/kg/injection, schedule: Q01DX009 (ip), vehicle: saline
[2] = dose: 12.5 mg/kg/injection, schedule: Q01DX009 (ip), vehicle: saline
[3] = dose: 25.0 mg/kg/injection, schedule: Q01DX009 (ip), vehicle: saline
[4] = dose: 50.0 mg/kg/injection, schedule: Q01DX009 (ip), vehicle: saline with Tween-80
[5] = dose: 100.0 mg/kg/injection, schedule: Q01DX009 (ip), vehicle: saline with Tween-80
[6] = dose: 100.0 mg/kg/injection, schedule: Q04DX003 (ip), vehicle: saline with Tween-80
[7] = dose: 200.0 mg/kg/injection, schedule: Q01DX009 (ip), vehicle: saline with Tween-80
[8] = dose: 200.0 mg/kg/injection, schedule: Q04DX003 (ip), vehicle: saline with Tween-80
[9] = dose: 400.0 mg/kg/injection, schedule: Q01DX009 (ip), vehicle: saline with Tween-80
[10] = dose: 400.0 mg/kg/injection, schedule: Q04DX003 (ip), vehicle: saline with Tween-80
[11] = dose: 100.0 mg/kg/injection, schedule: Q01DX009 (ip), vehicle: Klucel (hydroxypropylcellulose) (HPC)
[12] = dose: 100.0 mg/kg/injection, schedule: Q04DX003 (ip), vehicle: Klucel (hydroxypropylcellulose) (HPC)
[13] = dose: 200.0 mg/kg/injection, schedule: Q01DX009 (ip), vehicle: Klucel (hydroxypropylcellulose) (HPC)
[14] = dose: 200.0 mg/kg/injection, schedule: Q04DX003 (ip), vehicle: Klucel (hydroxypropylcellulose) (HPC)
[15] = dose: 400.0 mg/kg/injection, schedule: Q01DX009 (ip), vehicle: Klucel (hydroxypropylcellulose) (HPC)
[16] = dose: 400.0 mg/kg/injection, schedule: Q04DX003 (ip), vehicle: Klucel (hydroxypropylcellulose) (HPC)
[17] = dose: 200.0 mg/kg/injection, schedule: Q04DX002 (ip), vehicle: saline with Tween-80

Measured: T/C

CCC(=O)OCc1c(C)nc2sccn12
inactive: dose: 25.0 mg/kg/injection, schedule: Q01DX001 (ip), vehicle: saline 96 % of control | dose: 50.0 mg/kg/injection, schedule: Q01DX001 (ip), vehicle: saline 102 % of control | dose: 100.0 mg/kg/injection, schedule: Q01DX001 (ip), vehicle: saline 105 % of control

NC1CC[N-]CC1.NC1CC[N-]CC1.[Cl][Pt+2]([Cl])([Cl])[Cl]
inactive: dose: 3.12 mg/kg/injection, schedule: Q01DX009 (ip), vehicle: saline 109 % of control | [1] 100 % of control and 118 % of control | [2] 108 % of control | [3] 120 % of control | dose: 50.0 mg/kg/injection, schedule: Q01DX009 (ip), vehicle: saline 111 % of control

CC(C)COC(=O)c1cc(O)c(O)c(O)c1
inactive: dose: 25.0 mg/kg/injection, schedule: Q01DX009 (ip), vehicle: saline with Tween-80 95 % of control | [4] 91 % of control | [5] 112 % of control | [6] 105 % of control | [7] 103 % of control | [8] 115 % of control | [9] 103 % of control | [10] 115 % of control

CC(C)CC(C)CC(O)CC(C)C (stereo unspecified)
inactive: [11] 110 % of control | [12] 100 % of control | [13] 100 % of control | [14] 100 % of control | [15] 115 % of control | [16] 95 % of control

CCCCC(NC(C)=O)C(=O)O (stereo unspecified)
inactive: [5] 119 % of control | [9] 113 % of control

C[C@H]1C=C(O)C(=O)[C@@]2(C)C[C@H]3CCC(=O)O[C@H]3C[C@H]12
inactive: dose: 2.5 mg/kg/injection, schedule: Q01DX009 (ip), vehicle: saline + alcohol 105 % of control | dose: 5.0 mg/kg/injection, schedule: Q01DX009 (ip), vehicle: saline + alcohol 107 % of control | dose: 10.0 mg/kg/injection, schedule: Q01DX009 (ip), vehicle: saline + alcohol 91 % of control | dose: 20.0 mg/kg/injection, schedule: Q01DX009 (ip), vehicle: saline + alcohol 100 % of control

CC[C@H]1CN2CCc3cc(OC)c(OC)cc3[C@@H]2C[C@@H]1C[C@H]1NCCc2cc(OC)c(OC)cc21
inactive: dose: 3.0 mg/kg/injection, schedule: Q01DX009 (oral), vehicle: saline 90 % of control | dose: 4.0 mg/kg/injection, schedule: Q04DX003 (ip), vehicle: saline 103 % of control | dose: 4.0 mg/kg/injection, schedule: Q## X003 (ip), vehicle: saline 115 % of control | dose: 6.0 mg/kg/injection, schedule: Q01DX009 (oral), vehicle: saline 86 % of control | dose: 8.0 mg/kg/injection, schedule: Q01DX005 (ip), vehicle: saline 90 % of control | dose: 8.0 mg/kg/injection, schedule: Q## X002 (ip), vehicle: saline 115 % of control | dose: 32.0 mg/kg/injection, schedule: Q## X003 (ip), vehicle: saline 90 % of control
active: dose: 2.0 mg/kg/injection, schedule: Q01DX005 (ip), vehicle: saline 150 % of control | dose: 2.0 mg/kg/injection, schedule: Q01DX009 (ip), vehicle: saline 150 % of control | dose: 3.5 mg/kg/injection, schedule: Q01DX010 (ip), vehicle: saline 154 % of control and 160 % of control | dose: 4.0 mg/kg/injection, schedule: Q01DX005 (ip), vehicle: saline 175 % of control | dose: 4.0 mg/kg/injection, schedule: Q01DX009 (ip), vehicle: saline 220 % of control | dose: 7.0 mg/kg/injection, schedule: Q01DX010 (ip), vehicle: saline 222 % of control | dose: 7.78 mg/kg/injection, schedule: Q04DX003 (ip), vehicle: saline 160 % of control | dose: 8.0 mg/kg/injection, schedule: Q04DX003 (ip), vehicle: saline 163 % of control | dose: 8.0 mg/kg/injection, schedule: Q## X003 (ip), vehicle: saline 150 % of control | dose: 13.0 mg/kg/injection, schedule: Q04DX003 (ip), vehicle: saline 151 % of control and 158 % of control and 192 % of control | dose: 16.0 mg/kg/injection, schedule: Q04DX003 (ip), vehicle: saline 232 % of control | dose: 16.0 mg/kg/injection, schedule: Q## X002 (ip), vehicle: saline 165 % of control | dose: 16.0 mg/kg/injection, schedule: Q## X003 (ip), vehicle: saline 185 % of control | dose: 16.0 mg/kg/injection, schedule: Q## X008 (ip), vehicle: saline 160 % of control | dose: 16.0 mg/kg/injection, schedule: Q## X016 (ip), vehicle: saline 165 % of control | dose: 16.0 mg/kg/injection, schedule: Q## X024 (ip), vehicle: saline 215 % of control | dose: 18.0 mg/kg/injection, schedule: Q04DX003 (ip), vehicle: saline 185 % of control | dose: 21.6 mg/kg/injection, schedule: Q04DX003 (ip), vehicle: saline 225 % of control and 235 % of control and 239 % of control | dose: 32.0 mg/kg/injection, schedule: Q01DX001 (ip), vehicle: saline 150 % of control | dose: 32.0 mg/kg/injection, schedule: Q## X002 (ip), vehicle: saline 210 % of control | dose: 32.0 mg/kg/injection, schedule: Q## X016 (ip), vehicle: saline 150 % of control

O=c1cc2cccccc-2cc1O
inactive: dose: 10.0 mg/kg/injection, schedule: Q01DX009 (ip), vehicle: saline with Tween-80 104 % of control | dose: 20.0 mg/kg/injection, schedule: Q01DX009 (ip), vehicle: saline with Tween-80 113 % of control | dose: 40.0 mg/kg/injection, schedule: Q01DX009 (ip), vehicle: saline with Tween-80 113 % of control

CC1(C)COCN1CN1COCC1(C)C
active: dose: 50.0 mg/kg/injection, schedule: Q04DX003 (ip), vehicle: saline 150 % of control | dose: 100.0 mg/kg/injection, schedule: Q04DX003 (ip), vehicle: saline 155 % of control

CCO/C=C(\C#N)C(=O)O
inactive: [6] 88 % of control | [7] 111 % of control | [8] 88 % of control | [9] 119 % of control | [10] 92 % of control

CCOC(=O)Nc1cc(NC(C)CCCN(CC)CC)c2ncc(-c3ccc(Cl)c(Cl)c3)nc2n1 (stereo unspecified) (tested in a mixture with another compound)
inactive: [1] 109 % of control | dose: 6.25 mg/kg/injection, schedule: Q04DX003 (ip), vehicle: saline 95 % of control | [2] 100 % of control | dose: 12.5 mg/kg/injection, schedule: Q04DX003 (ip), vehicle: saline 95 % of control | [3] 104 % of control | dose: 25.0 mg/kg/injection, schedule: Q04DX003 (ip), vehicle: saline 104 % of control

C[C@]12CCC(=O)C=C1CC[C@@H]1[C@@H]2C(=O)C[C@@]2(C)[C@H]1CC[C@]2(O)C(=O)CO
inactive: [11] 108 % of control | [12] 110 % of control | [13] 108 % of control | [14] 115 % of control | [15] 87 % of control | [16] 110 % of control

OC1c2ccccc2-c2ccccc2C1O (stereo unspecified)
active: [17] 153 % of control | dose: 400.0 mg/kg/injection, schedule: Q04DX002 (ip), vehicle: saline with Tween-80 155 % of control

CC1(C)CC(C)(OC(=O)c2ccccc2)[N+]([O-])=N1 (stereo unspecified)
inactive: dose: 25.0 mg/kg/injection, schedule: Q01DX005 (ip), vehicle: other 108 % of control | dose: 50.0 mg/kg/injection, schedule: Q01DX005 (ip), vehicle: other 117 % of control | dose: 100.0 mg/kg/injection, schedule: Q01DX005 (ip), vehicle: other 99 % of control | dose: 200.0 mg/kg/injection, schedule: Q01DX005 (ip), vehicle: other 101 % of control | dose: 400.0 mg/kg/injection, schedule: Q01DX005 (ip), vehicle: other 108 % of control

O=C(Nc1ccc(Cc2ccc(NC(=O)Nc3nc4ccccc4s3)cc2)cc1)Nc1nc2ccccc2s1
inactive: [4] 94 % of control | [5] 89 % of control | [7] 100 % of control

CCOC(=O)c1ccc(NC(C)=O)c(CSC)c1
inactive: dose: 50.0 mg/kg/injection, schedule: Q04DX002 (ip), vehicle: saline with Tween-80 107 % of control | dose: 100.0 mg/kg/injection, schedule: Q04DX002 (ip), vehicle: saline with Tween-80 98 % of control | [17] 99 % of control
